Test results published in the NIST ThermoML archive (doi:10.1021/acs.jced.8b00537).
± gives the expanded uncertainty stated by the source.

Assay: xn = mol fraction of the nth substance listed
Conditions: 100 kPa, Liquid; for viscosity: Capillary tube (Ostwald / Ubbelohde) method; for speed of sound: Frequency=3 MHz, Single path-length method; for mass density: Vibrating tube method

C=CCn1cc[n+](C)c1.O=S(=O)([N-]S(=O)(=O)C(F)(F)F)C(F)(F)F + CCCO
Conditions | mass density [kg/m3] | speed of sound [m/s] | viscosity [mPa·s]
293.15 K, x1 = 0.04962 | 915 ± 2 | 1204.7 ± 6 | 2.854 ± 0.23
293.15 K, x1 = 0.1003 | 1005 ± 2 | 1193.5 ± 6 | 3.841 ± 0.31
293.15 K, x1 = 0.1995 | 1136 ± 2 | 1193.5 ± 6 | 5.727 ± 0.46
293.15 K, x1 = 0.2987 | 1228 ± 3 | 1202.2 ± 6 | 7.59 ± 0.61
293.15 K, x1 = 0.399 | 1297 ± 3 | 1210.6 ± 6 | 9.85 ± 0.79
293.15 K, x1 = 0.5003 | 1352 ± 3 | 1221 ± 6.1 | 12.17 ± 0.98
293.15 K, x1 = 0.6007 | 1394 ± 3 | 1227.5 ± 6.1 | 15.66 ± 1.3
293.15 K, x1 = 0.6971 | 1428 ± 3 | 1234.7 ± 6.1 | 19.1 ± 1.5
293.15 K, x1 = 0.8024 | 1459 ± 3 | 1241.9 ± 6.1 | 24.1 ± 1.9
293.15 K, x1 = 0.8974 | 1483 ± 3 | 1246.5 ± 6.2 | 30.62 ± 2.5
293.15 K, x1 = 1 | 1505 ± 3 | 1251.6 ± 6.2 | 41.83 ± 3.4
298.15 K, x1 = 0.04962 | – | 1189.4 ± 6 | –
298.15 K, x1 = 0.1003 | – | 1179 ± 6 | –
298.15 K, x1 = 0.1995 | – | 1180.2 ± 6 | –
298.15 K, x1 = 0.2987 | – | 1189.5 ± 6 | –
298.15 K, x1 = 0.399 | – | 1198.3 ± 6 | –
298.15 K, x1 = 0.5003 | – | 1208.9 ± 6.1 | –
298.15 K, x1 = 0.6007 | – | 1215.6 ± 6.1 | –
298.15 K, x1 = 0.6971 | – | 1222.9 ± 6.1 | –
298.15 K, x1 = 0.8024 | – | 1230.3 ± 6.1 | –
298.15 K, x1 = 0.8974 | – | 1235 ± 6.2 | –
298.15 K, x1 = 1 | – | 1240.2 ± 6.2 | –
303.15 K, x1 = 0.04962 | 906 ± 2 | 1174 ± 6 | 2.215 ± 0.18
303.15 K, x1 = 0.1003 | 996 ± 2 | 1164.6 ± 6 | 2.899 ± 0.23
303.15 K, x1 = 0.1995 | 1126 ± 2 | 1167 ± 6 | 4.266 ± 0.34
303.15 K, x1 = 0.2987 | 1219 ± 3 | 1176.9 ± 6 | 5.633 ± 0.45
303.15 K, x1 = 0.399 | 1287 ± 3 | 1186 ± 6 | 7.268 ± 0.58
303.15 K, x1 = 0.5003 | 1341 ± 3 | 1197 ± 6.1 | 8.94 ± 0.72
303.15 K, x1 = 0.6007 | 1384 ± 3 | 1203.9 ± 6.1 | 11.42 ± 0.92
303.15 K, x1 = 0.6971 | 1418 ± 3 | 1211.3 ± 6.1 | 13.82 ± 1.1
303.15 K, x1 = 0.8024 | 1449 ± 3 | 1218.8 ± 6.1 | 17.21 ± 1.4
303.15 K, x1 = 0.8974 | 1472 ± 3 | 1223.6 ± 6.2 | 21.53 ± 1.7
303.15 K, x1 = 1 | 1495 ± 3 | 1228.9 ± 6.2 | 28.51 ± 2.3
308.15 K, x1 = 0.04962 | 902 ± 2 | 1158.7 ± 6 | 1.969 ± 0.16
308.15 K, x1 = 0.1003 | 991 ± 2 | 1150.4 ± 6 | 2.555 ± 0.2
308.15 K, x1 = 0.1995 | 1121 ± 2 | 1153.9 ± 6 | 3.74 ± 0.3
308.15 K, x1 = 0.2987 | 1214 ± 3 | 1164.4 ± 6 | 4.928 ± 0.4
308.15 K, x1 = 0.399 | 1282 ± 3 | 1174 ± 6 | 6.339 ± 0.51
308.15 K, x1 = 0.5003 | 1336 ± 3 | 1185.2 ± 6.1 | 7.782 ± 0.62
308.15 K, x1 = 0.6007 | 1379 ± 3 | 1192.3 ± 6.1 | 9.908 ± 0.8
308.15 K, x1 = 0.6971 | 1413 ± 3 | 1199.9 ± 6.1 | 11.95 ± 0.96
308.15 K, x1 = 0.8024 | 1444 ± 3 | 1207.5 ± 6.1 | 14.8 ± 1.2
308.15 K, x1 = 0.8974 | 1467 ± 3 | 1212.4 ± 6.2 | 18.38 ± 1.5
308.15 K, x1 = 1 | 1489 ± 3 | 1217.8 ± 6.2 | 23.96 ± 1.9
313.15 K, x1 = 0.04962 | 898 ± 2 | 1143.4 ± 6 | 1.759 ± 0.14
313.15 K, x1 = 0.1003 | 987 ± 2 | 1136.2 ± 6 | 2.266 ± 0.18
313.15 K, x1 = 0.1995 | 1117 ± 2 | 1140.9 ± 6 | 3.302 ± 0.27
313.15 K, x1 = 0.2987 | 1209 ± 3 | 1152 ± 6 | 4.344 ± 0.35
313.15 K, x1 = 0.399 | 1277 ± 3 | 1162 ± 6 | 5.574 ± 0.45
313.15 K, x1 = 0.5003 | 1331 ± 3 | 1173.5 ± 6.1 | 6.833 ± 0.55
313.15 K, x1 = 0.6007 | 1374 ± 3 | 1180.8 ± 6.1 | 8.677 ± 0.7
313.15 K, x1 = 0.6971 | 1408 ± 3 | 1188.6 ± 6.1 | 10.42 ± 0.84
313.15 K, x1 = 0.8024 | 1439 ± 3 | 1196.3 ± 6.1 | 12.85 ± 1
313.15 K, x1 = 0.8974 | 1462 ± 3 | 1201.3 ± 6.2 | 15.85 ± 1.3
313.15 K, x1 = 1 | 1484 ± 3 | 1206.8 ± 6.2 | 20.41 ± 1.6
318.15 K, x1 = 0.04962 | 893 ± 2 | 1128.2 ± 6 | 1.577 ± 0.13
318.15 K, x1 = 0.1003 | 982 ± 2 | 1122.1 ± 6 | 2.021 ± 0.16
318.15 K, x1 = 0.1995 | 1112 ± 2 | 1128 ± 6 | 2.938 ± 0.24
318.15 K, x1 = 0.2987 | 1204 ± 2 | 1139.7 ± 6 | 3.858 ± 0.31
318.15 K, x1 = 0.399 | 1272 ± 3 | 1150.1 ± 6 | 4.937 ± 0.4
318.15 K, x1 = 0.5003 | – | 1161.8 ± 6.1 | 6.043 ± 0.49
318.15 K, x1 = 0.6007 | – | 1169.4 ± 6.1 | 7.657 ± 0.61
318.15 K, x1 = 0.6971 | – | 1177.4 ± 6.1 | 9.174 ± 0.74
318.15 K, x1 = 0.8024 | – | 1185.2 ± 6.1 | 11.26 ± 0.91
318.15 K, x1 = 0.8974 | – | 1190.4 ± 6.2 | 13.81 ± 1.1
318.15 K, x1 = 1 | – | 1196 ± 6.2 | 17.51 ± 1.4
